Data from EP0469683A1, “Derivatives of 4-amino-1-methyltetralins, their preparation and their application in therapy” (LABORATOIRES LUCIEN, Société Anonyme :, priority 1990, dated 1992).
Marks after values point to notes of the source that are not given here.

Tests used:
Format in all cases: in vivo
souris [1] = test: Acute toxicity: mortality after single intraperitoneal administration of increasing doses; details: mouse
Procedure: La détermination de la mortalité chez la souris est observée à la suite de l'administration unique par voie intrapéritonéale de doses croissantes de composés à tester.
La dose limite DL100 pour les composés étudiés est supérieure ou égale à 100 mg/kg. Les doses DLO et DL100 des composés 27, 32 et 36 sont rassemblées dans le tableau 2: […]

souris [2] = test: Hot plate test (56 C), reaction time to thermal pain stimulus; details: hydrochloride, 1 h after administration
From the text: Cet essai consiste à mesurer le temps d'apparition d'une réaction au stimulus thermoalgique chez la souris.
L'animal est placé sur une plaque métallique portée à une température constante de 56 C. […] Après administration d'un analgésique, le délai d'apparition du réflexe s'allonge: on obtient une élévation de réaction du seuil.
Les composés ont été administrés par voie intrapéritonéale sous forme de chlorhydrate et testés sur les animaux 1 heure après leur administration. Les résultats sont donnés sur quelques exemples dans le tableau 3 suivant un pourcentage de variation du temps de réaction moyen après traitement par rapport à avant traitement.

souris [3] = test: Abdominal cramps test (writhing test), acetic acid i.p.; details: for Degré de protection par rapport aux témoins: hydrochloride, 30 min before acetic acid; for Degré de protection par rapport aux témoins à 30´ / Degré de protection par rapport aux témoins à 1 h / Degré de protection par rapport aux témoins à 2 h / Degré de protection par rapport aux témoins à 4 h / Degré de protection par rapport aux témoins à 6 h: 4 mg/kg; for Degré de protection par rapport aux témoins à 30´: reading at 30 min; for Degré de protection par rapport aux témoins à 1 h: reading at 1 h; for Degré de protection par rapport aux témoins à 2 h: reading at 2 h; for Degré de protection par rapport aux témoins à 4 h: reading at 4 h; for Degré de protection par rapport aux témoins à 6 h: reading at 6 h; for résultats des tests complémentaires (crampes abdominales): other racemic diastereomer compared with the one shown in Tableau 4
Procedure: Ce test, également connu sous le nom de WRITHING TEST, utilisé pour la sélection d'analgésiques/antalgiques à effet périphérique, consiste à rechercher une éventuelle protection vis-à-vis des crampes et/ou contorsions abdominales provoquées, chez la souris, par l'injection intrapéritonéale d'acide acétique.
Les composés ont été administrés sous forme de chlorhydrate par voie intrapéritonéale 30 minutes avant l'acide acétique.
Du point de vue cinétique de l'activité antalgique, des tests de crampes abdominales ont été poursuivis dans le temps avec des relevés à 30 minutes, 1 heure, 2 heures, 4 heures et 6 heures.

souris [4] = test: as above; details: oral administration; for activité par voie orale: 16 mg/kg
souris [5] = test: Behavioural despair test (forced swimming, immobility time); details: 25 mg/kg, given 30 min before 6 min exposure to water
From the text: L'activité antidépressive de composés selon l'invention a été mise en évidence par l'étude du comportement du désespoir chez la souris.
Selon le principe du test, un état dépressif est induit chez la souris en l'obligeant à nager dans un récipient cylindrique étroit d'où elle ne peut s'échapper. Après une période brève d'intense activité, la souris adopte une position immobile caractéristique, facilement identifiable. Les antidépresseurs réduisent ces moments d'immobilité.
Selon le protocole expérimental, les souris sont pré-exposées à l'eau à 25°C pendant 15 minutes, 24 heures avant le test. Pour le test on administre le composé à étudier 30 minutes avant une exposition à l'eau de 6 minutes. Le temps total d'immobilité de la 2e à la 6e minute est mesuré. Les animaux témoins reçoivent le véhicule d'administration du produit de traitement dans les mêmes conditions que les animaux traités.

rat = test: Carrageenan-induced hind paw oedema (plethysmometer); details: 15 mg/kg, given 1 h before carrageenan; for % d'inhibitions de l'oedème/témoin à 3 h: 3 h after carrageenan; for % d'inhibitions de l'oedème/témoin à 4 h: 4 h after carrageenan; for % d'inhibitions de l'oedème/témoin à 5 h: 5 h after carrageenan
From the text: L'activité anti-inflammatoire de composés selon l'invention a été mise en évidence par l'étude de la réduction d'une réaction inflammatoire induite par injection de carragénine sous l'aponévrose plantaire de la patte postérieure du rat (carragénine Sigma type IV, solution de 1 % dans du soluté isotonique de NaCI).
Le test utilise un appareil de mesure de volume du type "pléthysmométre" constitué d'une structure en U remplie d'eau, une branche du U étant constituée d'un cylindre destiné à recevoir la patte de l'animal (la patte de l'animal est plongée jusqu'à coïncidence de l'articulation tibio-tarsienne avec un repère de base), l'autre branche étant constituée d'une pipette graduée permettant la mesure de volume en mode différentiel.
Selon le protocole expérimental, au temps "t0" on mesure le volume de la patte de l'animal puis on administre le produit de traitement à étudier (les animaux témoins recevant le véhicule d'administration dans les mêmes conditions). Au temps TO + 1 heure, on injecte sous l'aponévrose plantaire de chaque animal 0,05 ml de la solution de carragénine. Le volume de la patte de l'animal est mesuré 3, 4 et 5 heures après injection de la carragénine.
L'activité anti-inflammatoire est calculée en pourcentage de réduction de l'oedème chez les rats traités par rapport aux rats témoins.

[6] = DL100, single dose, intraperitoneal
[7] = DLO, single dose, intraperitoneal

SMILES: CC1(c2ccc(F)cc2)CCC(N2CCN(CCO)CC2)c2ccccc21 (stereo not shown) [compound 27]
- Dose limite 100 en (souris [1]; [6]): 200 mg/kg
- Dose limite 0 en (souris [1]; [7]): 100 mg/kg
- doses limites DLO et DL100 par rapport à l'amino-4-trifluorométhyl-1 tétraline correspondante (souris [1]; intraperitoneal, compared with the corresponding 4-amino-1-trifluoromethyl tetralin): deux fois
- Variation du temps de réaction moyen en % (souris [2]; 15mg/kg intraperitoneal): 29%
- Degré de protection par rapport aux témoins (souris [3]; 4 mg/kg intraperitoneal): 49%
- Degré de protection par rapport aux témoins (souris [3]; 8 mg/kg intraperitoneal): 66%
- Degré de protection par rapport aux témoins (souris [3]; 15 mg/kg intraperitoneal): 92%
- pourcentages de protection (souris [3]; oral administration, 32 mg/kg): 37%
- activité par rapport à l'amino-4-trifluoro-méthyl-1 tétraline correspondante (souris [3]; writhing test, intraperitoneal): activité nettement améliorée
- pourcentages de protection (souris [4]; 60 mg/kg): 86%

SMILES: CC(C)(C)c1ccc2c(c1)C(C)(c1ccc(F)cc1)CCC2N1CCN(CCOC(=O)Nc2cccc3ccccc23)CC1 (stereo not shown) [36.n]
- Dose limite 0 en (souris [1]; [7]): >200 mg/kg

SMILES: CC(C)(C)c1ccc2c(c1)C(C)(c1ccccc1)CCC2N1CCOCC1 (stereo not drawn) [39 (cis)]
- Degré de protection par rapport aux témoins (souris [3]; 0,5 mg/kg intraperitoneal): 53%
- Degré de protection par rapport aux témoins (souris [3]; 1 mg/kg intraperitoneal): 58%
- Degré de protection par rapport aux témoins (souris [3]; 2 mg/kg intraperitoneal): 54%
- Degré de protection par rapport aux témoins (souris [3]; 4 mg/kg intraperitoneal): 63%
- Degré de protection par rapport aux témoins (souris [3]; 8 mg/kg intraperitoneal): 89%

SMILES: CC(C)(C)c1ccc2c(c1)C(C)(c1ccc(F)cc1)CCC2N1CCN(CCOC(=O)Nc2ccccc2)CC1 (stereo not drawn) [36.p (cis)]
- Degré de protection par rapport aux témoins (souris [3]; 0,5 mg/kg intraperitoneal): 61%
- Degré de protection par rapport aux témoins (souris [3]; 1 mg/kg intraperitoneal): 44%
- Degré de protection par rapport aux témoins (souris [3]; 2 mg/kg intraperitoneal): 61%
- Degré de protection par rapport aux témoins (souris [3]; 4 mg/kg intraperitoneal): 90%
- Degré de protection par rapport aux témoins à 30´ (souris [3]): 89***
- Degré de protection par rapport aux témoins à 1 h (souris [3]): 69***
- Degré de protection par rapport aux témoins à 2 h (souris [3]): 68***
- Degré de protection par rapport aux témoins à 4 h (souris [3]): 46**
- Degré de protection par rapport aux témoins à 6 h (souris [3]): 24
- Degré de protection par rapport aux témoins (souris [3]; 8 mg/kg intraperitoneal): 93%

SMILES: CC(C)(C)c1ccc2c(c1)C(C)(c1ccc(F)cc1)CCC2N1CCN(CCOC(=O)Nc2ccccc2)CC1 (stereo not drawn) [36.p (trans)]
- Variation du temps de réaction moyen en % (souris [2]; 25 mg/kg intraperitoneal): 63* %
- résultats des tests complémentaires (crampes abdominales) (souris [3]): résultats comparables

SMILES: CC1(c2ccc(F)cc2)CCC(N2CCN(CCOC(=O)Nc3ccccc3)CC2)c2ccccc21 (stereo not drawn) [27.p (trans)]
- Degré de protection par rapport aux témoins (souris [3]; 0,5 mg/kg intraperitoneal): 58%
- Degré de protection par rapport aux témoins (souris [3]; 0,25 mg/kg intraperitoneal): 47%
- Degré de protection par rapport aux témoins (souris [3]; 1 mg/kg intraperitoneal): 70%
- Degré de protection par rapport aux témoins (souris [3]; 2 mg/kg intraperitoneal): 68%
- Degré de protection par rapport aux témoins (souris [3]; 4 mg/kg intraperitoneal): 75%
- Degré de protection par rapport aux témoins à 30´ (souris [3]): 84***
- Degré de protection par rapport aux témoins à 1 h (souris [3]): 68***
- Degré de protection par rapport aux témoins à 2 h (souris [3]): 53**
- Degré de protection par rapport aux témoins à 4 h (souris [3]): 56***
- Degré de protection par rapport aux témoins à 6 h (souris [3]): 21
- Degré de protection par rapport aux témoins (souris [3]; 8 mg/kg intraperitoneal): 92%
- activité antidépressive (souris [5]): activité antidépressive certaine
- % d'inhibitions de l'oedème/témoin à 3 h (rat): 40** %
- % d'inhibitions de l'oedème/témoin à 4 h (rat): 40*** %
- % d'inhibitions de l'oedème/témoin à 5 h (rat): 39** %

SMILES: CC1(c2ccc(F)cc2)CCC(N2CCN(CCOC(=O)Nc3ccccc3)CC2)c2ccccc21 (stereo not drawn) [27.p (cis)]
- résultats des tests complémentaires (crampes abdominales) (souris [3]): résultats comparables
- % d'inhibitions de l'oedème/témoin à 3 h (rat): 35* %
- % d'inhibitions de l'oedème/témoin à 4 h (rat): 39** %
- % d'inhibitions de l'oedème/témoin à 5 h (rat): 43** %

SMILES: CC1(c2ccc(F)cc2)CCC(N2CCN(CCOC(=O)Nc3ccccc3)CC2)c2ccccc21 (stereo not shown) [27.p]
- Dose limite 0 en (souris [1]; [7]): >200 mg/kg

SMILES: CC(C)(C)c1ccc2c(c1)C(C)(c1ccc(F)cc1)CCC2N1CCN(CCOC(=O)Nc2ccccc2)CC1 (stereo not shown) [36.p]
- Dose limite 100 en (souris [1]; [6]): >200 mg/kg
- Dose limite 0 en (souris [1]; [7]): 100 mg/kg
- activité par voie orale (souris [4]): actifs par voie orale

SMILES: CC(C)(C)c1ccc2c(c1)C(C)(c1ccccc1)CCC2N1CCOCC1 (stereo not drawn) [39 (trans)]
- Variation du temps de réaction moyen en % (souris [2]; 25 mg/kg intraperitoneal): 58%
- résultats des tests complémentaires (crampes abdominales) (souris [3]): résultats comparables

SMILES: CC(=O)OCCN1CCN(C2CCC(C)(c3ccc(F)cc3)c3cc(C(C)(C)C)ccc32)CC1 (stereo not shown) [36.a]
- Dose limite 0 en (souris [1]; in vivo, ip): 100 mg/kg
- Dose limite 100 en (souris [1]; in vivo, ip): >200 mg/kg
- Variation du temps de réaction moyen en % (souris [2]; 15mg/kg intraperitoneal): 35%
- Degré de protection par rapport aux témoins (souris [3]; 2 mg/kg intraperitoneal): 52%
- Degré de protection par rapport aux témoins (souris [3]; 4 mg/kg intraperitoneal): 66%
- Degré de protection par rapport aux témoins à 30´ (souris [3]): 69***
- Degré de protection par rapport aux témoins à 1 h (souris [3]): 82***
- Degré de protection par rapport aux témoins à 2 h (souris [3]): 60**
- Degré de protection par rapport aux témoins à 4 h (souris [3]): 58***
- Degré de protection par rapport aux témoins à 6 h (souris [3]): 38**
- Degré de protection par rapport aux témoins (souris [3]; 8 mg/kg intraperitoneal): 94%
- Degré de protection par rapport aux témoins (souris [3]; 15 mg/kg intraperitoneal): 85%
- activité par voie orale (souris [4]): actifs par voie orale

SMILES: CC(C)(C)c1ccc2c(c1)C(C)(c1ccccc1)CCC2N1CCN(CCO)CC1 (stereo not shown) [compound 32]
- Dose limite 0 en (souris [1]; in vivo, ip): 25 mg/kg
- Dose limite 100 en (souris [1]; in vivo, ip): 100 mg/kg
- Variation du temps de réaction moyen en % (souris [2]; 8mg/kg intraperitoneal): 16%
- Degré de protection par rapport aux témoins (souris [3]; 8 mg/kg intraperitoneal): 41%
